Test results published in patent US12091411B2, “IRAK degraders and uses thereof” (Kymera Therapeutics, Inc., priority 2022, dated 2024).
Like-named read-outs stand apart in the source and are kept apart here.

Target: T1, IRAK4 (Homo sapiens, UniProt Q9NWZ3)
T1 construct: Degradation of IRAK4 in OCI-LY10 was quantitatively measured using Meso Scale Discovery technology; endogenous in cells; host or cells: OCI-LY10
T1 sequence (Q9NWZ3 1-460): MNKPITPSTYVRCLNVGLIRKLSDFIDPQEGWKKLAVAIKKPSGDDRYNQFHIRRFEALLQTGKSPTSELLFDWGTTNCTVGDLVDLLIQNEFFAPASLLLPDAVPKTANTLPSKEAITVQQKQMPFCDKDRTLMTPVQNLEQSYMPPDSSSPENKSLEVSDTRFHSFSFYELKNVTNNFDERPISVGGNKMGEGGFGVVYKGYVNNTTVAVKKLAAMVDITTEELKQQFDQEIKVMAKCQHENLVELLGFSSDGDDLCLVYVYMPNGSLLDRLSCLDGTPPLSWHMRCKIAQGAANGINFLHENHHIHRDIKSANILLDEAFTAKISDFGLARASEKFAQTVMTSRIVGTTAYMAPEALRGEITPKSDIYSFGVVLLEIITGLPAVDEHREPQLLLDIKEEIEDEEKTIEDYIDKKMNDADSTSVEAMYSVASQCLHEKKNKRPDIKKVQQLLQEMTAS
Test: IRAK4 MSD Degradation in OCI-LY10
Format: cell-based
Settings: OCI-LY10 cells, MSD
Summary of the method: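 OCI-LY10 cells exposed to 8-point 1:3 compound series (top 1 to 10 μM) for 4 to 24 h at 37 °C, 5% CO2. Lysate IRAK4 quantified by MSD sandwich immunoassay. DC50 from three-parameter logistic fit, binned A (<0.01 μM) to D (>0.2 μM or not tested).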

[1] = 4 hrs incubation, read-out: IRAK4 degradation in OCI-LY10 at 4 hrs: DC50
[2] = 24 hrs incubation, read-out: IRAK4 degradation in OCI-LY10 at 24 hrs: DC50

| Compound | DC50 [1] [nM] | DC50 [2] [nM] |
| --- | --- | --- |
| Cn1c(=O)n(C2CCC(=O)NC2=O)c2cccc(C#CCN3CCC(C[C@H]4CC[C@H](n5cc6cc(NC(=O)c7cccc(C(F)(F)F)n7)ccc6n5)CC4)CC3)c21 (stereo partly shown) [I-758] | > 200 | > 200 |
| Cn1c(=O)n(C2CCC(=O)NC2=O)c2cccc(C3CCN(C[C@H]4CC[C@H](n5cc6cc(NC(=O)c7cccc(C(F)(F)F)n7)ccc6n5)CC4)CC3F)c21 (stereo partly shown) [I-553] | > 200 | < 10 |
| Cn1c(=O)n(C2CCC(=O)NC2=O)c2cccc(N3CCC(N(CC(F)F)C[C@H]4CC[C@H](n5cc(NC(=O)c6cnn7cccnc67)c(C(F)F)n5)CC4)CC3)c21 (stereo partly shown) [I-312] | > 200 | > 200 |
| Cn1c(=O)n(C2CCC(=O)NC2=O)c2cccc(C#CCOC3CCN(CC4CCN(c5ccc(C(F)F)c(NC(=O)c6cnn7ccc(N8C[C@H]9C[C@@H]8CO9)nc67)c5)CC4)CC3)c21 (stereo partly shown) [I-176] | > 200 | > 200 |
| Cn1c(=O)n(C2CCC(=O)NC2=O)c2cccc(N3CCN(CC4COC5(C4)CN(C[C@H]4CC[C@H](n6cc7cc(NC(=O)c8cccc(C(F)(F)F)n8)ncc7n6)CC4)C5)CC3)c21 (stereo partly shown) [I-666] | > 200 |  |
| Cn1c(=O)n(C2CCC(=O)NC2=O)c2cccc(N3CCC(OC[C@H]4CC[C@H](n5cc(NC(=O)c6cnn7cccnc67)c(C(F)F)n5)CC4)CC3)c21 (stereo partly shown) [I-786] | > 200 |  |
| Cn1c(=O)n(C2CCC(=O)NC2=O)c2cccc(C#CCN3CCN(C[C@H]4CC[C@H](n5cc(NC(=O)c6cnn7ccc(N8CCCC(C)(C)C8)nc67)c(C(F)F)n5)CC4)CC3)c21 (stereo partly shown) [I-229] | > 200 | 10 to 100 |
| Cn1c(=O)n(C2CCC(=O)NC2=O)c2cccc(N3CCN(C4CCN(C[C@H]5CC[C@H](n6cc(NC(=O)c7cnn8ccc(N9C[C@H]%10C[C@@H]9CO%10)nc78)c(C(F)F)n6)CC5)CC4(F)F)CC3)c21 (stereo partly shown) [I-701] | > 200 | < 10 |
| CC1CN(c2ccn3ncc(C(=O)Nc4cn([C@H]5CC[C@H](CN6CCN(CC#Cc7cccc8c7n(C)c(=O)n8C7CCC(=O)NC7=O)CC6)CC5)nc4C(F)F)c3n2)CCO1 (stereo partly shown) [I-288] | > 200 | > 200 |
| C[C@@H]1CN(c2ccn3ncc(C(=O)Nc4cn([C@H]5CC[C@H](CN(C)C6CCN(c7cccc8c7n(C)c(=O)n8C7CCC(=O)NC7=O)CC6(F)F)CC5)nc4C(F)F)c3n2)CCO1 (stereo partly shown) [I-529] | > 200 | 10 to 100 |
| CN(C[C@H]1CC[C@H](n2cc(NC(=O)c3cnn4ccc(N5CC(C)(C)OC(C)(C)C5)nc34)c(C(F)F)n2)CC1)C1CCN(c2cccc3c2n(C)c(=O)n3C2CCC(=O)NC2=O)CC1(F)F (stereo partly shown) [I-531] | > 200 | > 200 |
| COc1nc(NC(=O)c2cccc(C(F)(F)F)n2)cc2cn([C@H]3CC[C@H](CN4CC[C@@H](c5cccc6c5n(C)c(=O)n6C5CCC(=O)NC5=O)[C@H](F)C4)CC3)nc12 (stereo partly shown) [I-773] | > 200 | > 200 |
| CN(CC[C@H]1CC[C@H](n2cc(NC(=O)c3cnn4cccnc34)c(C(F)F)n2)CC1)C1CCN(c2cccc3c2n(C)c(=O)n3C2CCC(=O)NC2=O)CC1(F)F (stereo partly shown) [I-503] | > 200 | > 200 |
| Cn1c(=O)n(C2CCC(=O)NC2=O)c2cccc(N3CCC(OC[C@H]4CC[C@H](n5cc(NC(=O)c6cnn7cccnc67)c(C(F)F)n5)CC4)CC3)c21 (stereo partly shown) [I-240] | > 200 | > 200 |
| CO[C@]1(CN2CCN(C[C@H]3CC[C@H](n4cc(NC(=O)c5cnn6ccc(N7C[C@H]8CC7CO8)nc56)c(C(F)F)n4)CC3)CC2)C[C@H](c2cccc3c2n(C)c(=O)n3C2CCC(=O)NC2=O)C1 (stereo partly shown) [I-579] | > 200 | > 200 |
| Cn1c(=O)n(C2CCC(=O)NC2=O)c2cccc(N3CCC(O[C@H]4CC[C@H](n5cc6cc(NC(=O)c7cccc(C(F)(F)F)n7)ncc6n5)CC4)C3)c21 (stereo partly shown) [I-793] | > 200 | > 200 |

More lines, now with the values ahead:

| DC50 [1] [nM] | DC50 [2] [nM] | Compound |
| --- | --- | --- |
| > 200 | < 10 | C[C@@H]1CN(c2ccn3ncc(C(=O)Nc4cn([C@H]5CC[C@H](CN6CCN(CC7CN(c8cccc9c8n(C)c(=O)n9C8CCC(=O)NC8=O)C7)CC6)CC5)nc4C(F)F)c3n2)CCO1 (stereo partly shown) [I-680] |
| > 200 | < 10 | Cn1c(=O)n(C2CCC(=O)NC2=O)c2cccc(N3CC(O[C@H]4CCN(C[C@H]5CC[C@H](n6cc(NC(=O)c7cnn8ccc(N9C[C@H]%10C[C@@H]9CO%10)nc78)c(C(F)F)n6)CC5)C[C@@H]4F)C3)c21 (stereo partly shown) [I-733] |
| < 10 | > 200 | Cn1c(=O)n(C2CCC(=O)NC2=O)c2cccc([C@H]3C[C@H](CN4CCN(C[C@H]5CC[C@H](n6cc(NC(=O)c7cnn8ccc(N9C[C@H]%10C[C@@H]9CO%10)nc78)c(C(F)F)n6)CC5)CC4)C3)c21 (stereo partly shown) [I-79] |
| > 200 | > 200 | Cn1c(=O)n(C2CCC(=O)NC2=O)c2cccc(C#CCN3CCC(C[C@H]4CC[C@H](n5cc6cc(NC(=O)c7cccc(C(F)(F)F)n7)ncc6n5)CC4)CC3)c21 (stereo partly shown) [I-759] |
| 10 to 100 | > 200 | C[C@@H]1CN(C[C@H]2CC[C@H](n3cc(NC(=O)c4cnn5ccc(N6C[C@H]7C[C@@H]6CO7)nc45)c(C(F)F)n3)CC2)CCN1CC#Cc1cccc2c1n(C)c(=O)n2C1CCC(=O)NC1=O (stereo partly shown) [I-42] |
| > 200 | > 200 | Cc1cccc(C(=O)Nc2cc3cn([C@H]4CC[C@H](CN5CC[C@@H](c6cccc7c6n(C)c(=O)n7C6CCC(=O)NC6=O)[C@@H](F)C5)CC4)nc3cc2C(C)(C)O)n1 (stereo partly shown) [I-644] |
| > 200 | > 200 | Cn1c(=O)n(C2CCC(=O)NC2=O)c2cccc([C@H]3C[C@H](O[C@H]4CCN(C[C@H]5CC[C@H](n6cc(NC(=O)c7cnn8ccc(N9C[C@H]%10C[C@@H]9CO%10)nc78)c(C(F)F)n6)CC5)C[C@@H]4F)C3)c21 (stereo partly shown) [I-595] |
| > 200 | < 10 | Cn1c(=O)n(C2CCC(=O)NC2=O)c2cccc([C@@H]3CCN(C[C@H]4CC[C@H](n5cc6cc(NC(=O)c7cccc(C(F)F)n7)c(C(C)(C)O)cc6n5)CC4)C[C@H]3F)c21 (stereo partly shown) [I-653] |
| > 200 | > 200 | COc1cc2nn([C@H]3CC[C@H](CN4CCC5(CC4)CCN(c4c(F)ccc6c4n(C)c(=O)n6C4CCC(=O)NC4=O)CC5)CC3)cc2cc1NC(=O)c1cncc(C#N)c1 (stereo partly shown) [I-95] |
| > 200 | < 10 | Cn1c(=O)n(C2CCC(=O)NC2=O)c2cccc(N3CCN(C[C@H]4CC[C@H](n5cc6cc(NC(=O)c7cccc(C#N)n7)ccc6n5)CC4)CC3)c21 (stereo partly shown) [I-685] |
| > 200 | > 200 | CN(C[C@H]1CC[C@H](n2cc3cc(NC(=O)c4cccc(C(F)(F)F)n4)c(C#N)cc3n2)CC1)C1CCN(c2cccc3c2n(C)c(=O)n3C2CCC(=O)NC2=O)CC1F (stereo partly shown) [I-558] |
| > 200 | < 10 | Cc1cccc(C(=O)Nc2cc3cn([C@H]4CC[C@H](CN5CCC(c6cccc7c6n(C)c(=O)n7C6CCC(=O)NC6=O)C(F)(F)C5)CC4)nc3cc2C(C)(C)O)n1 (stereo partly shown) [I-617] |
| > 200 | < 10 | Cn1c(=O)n(C2CCC(=O)NC2=O)c2cccc(C3CCN(C[C@H]4CC[C@H](n5cc6cc(NC(=O)c7cccc(C#N)n7)ncc6n5)CC4)CC3F)c21 (stereo partly shown) [I-731] |
| > 200 | > 200 | Cn1c(=O)n(C2CCC(=O)NC2=O)c2cccc(N3CCC(N4CCN(C[C@H]5CC[C@H](n6cc(NC(=O)c7cnn8ccc(N9C[C@H]%10C[C@@H]9CO%10)nc78)c(C(F)F)n6)CC5)CC4)CC3)c21 (stereo partly shown) [I-367] |
| > 200 | 100 to 200 | CN(C)c1cnc2c(C(=O)Nc3cn([C@H]4CC[C@H](CN5CCN(CC#Cc6cccc7c6n(C)c(=O)n7C6CCC(=O)NC6=O)CC5)CC4)nc3C(F)F)cnn2c1 (stereo partly shown) [I-234] |
| > 200 | > 200 | O=C1CCN(c2cc(C#CCN3CCN(C[C@H]4CC[C@@H](n5cc(NC(=O)c6cnn7ccc(N8C[C@H]9C[C@@H]8CO9)nc67)c(C(F)F)n5)CC4)CC3)ccc2Cl)C(=O)N1 [I-258] |
| > 200 | > 200 | Cn1c(=O)n(C2CCC(=O)NC2=O)c2cccc(N3CCN([C@H]4CCN(C[C@H]5CC[C@H](n6cc(NC(=O)c7cnn8ccc(N9CC%10(COC%10)C9)nc78)c(C(F)F)n6)CC5)CC4(F)F)CC3)c21 (stereo partly shown) [I-747] |
| > 200 | > 200 | Cn1c(=O)n(C2CCC(=O)NC2=O)c2cccc(C#CCN3CC4(C3)N(C[C@H]3CC[C@H](n5cc(NC(=O)c6cnn7ccc(N8CCCC8)nc67)c(C(F)F)n5)CC3)CC4(F)F)c21 (stereo partly shown) [I-501] |
| < 10 | > 200 | Cn1c(=O)n(C2CCC(=O)NC2=O)c2cccc(C#CCN3CCN(C[C@H]4CC[C@H](n5cc(NC(=O)c6cnn7ccc(N8C[C@H]9C[C@@H]8CO9)nc67)c(C(F)F)n5)CC4)CC3)c21 (stereo partly drawn) [I-31, N-[3-(difluoromethyl)-1-[4-[[4-[3-[1-(2,6-dioxo-3-piperidyl)-3-methyl-2-oxo-benzimidazol-4-yl]prop-2-ynyl]piperazin-1-yl]methyl]cyclohexyl]pyrazol-4-yl]-5-[(1R,4R)-2-oxa-5-azabicyclo[2.2.1]heptan-5-yl]pyrazolo[1,5-a]pyrimidine-3-carboxamide] |
| < 10 | > 200 | Cn1c(=O)n(C2CCC(=O)NC2=O)c2cccc(C3CCN(C4CCN([C@H]5CC[C@H](n6cc(NC(=O)c7cnn8ccc(N9C[C@H]%10C[C@@H]9CO%10)nc78)c(C(F)F)n6)CC5)CC4)CC3)c21 (stereo partly shown) [I-202] |
